The values below come from patent publication US7312196B2, “Formulations for amylin agonist peptides” (Amylin Pharmaceuticals, Inc., priority 1998, dated 2007).

Holding throughout (assay type): physicochemical
Data set [1] is described as follows: pH-rate profile: stability of the peptide at pH 4.0-5.5, 45° C. As to conditions: 60 mM acetate buffer, 4.1% mannitol, 0.3% m-cresol. As for the experimental part: This example describes two preferred liquid formulations for pramlintide. Major degradation pathways for the peptide are […] and peptide bond hydrolysis. Therefore, the stability of the peptide was investigated in the pH region of 4.0-5.5 at 45° C. […] The following formulation was developed: […]

Data set [2] can be described thus: short term mixing compatibility with insulin in the same syringe. As to conditions: depending on type of insulin and volume ratio. The text has this: The formulations reported in Tables A and B are also compatible when mixed in a syringe with commercially available insulin products. […] As outlined by Brange et al, “Insulin Structure and Stability,” in Stability and Characterization of Protein and Peptide Drugs: Case Histories, 1993, Wang et al. (Ed), Plenum Press, NY, insulin has an isoelectric precipitation zone pH range of 4.5-6.5, within 1 pH unit from isoelectric point. Therefore, while not seeking to be bound by theory, if the pH of the insulin product drops from 7.2±0.2 to pH in the isoelectric precipitation range it may cause insulin to precipitate. Thus, clarity of the solution mixture was used as a criteria for preliminary compatibility studies. The insulin volumes used in this study (Table C) cover the maximum and minimum ranges typical for Type I diabetic patients. The formulation with higher buffer capacity (Table C) forms a clear solution faster than the lower buffer capacity formulation. However, at 0.01% of the peptide label strength both formulations form a clear solution with insulin within approximately one minute. In a syringe, one minute can be considered to be instantaneous mixing. The higher label strength of the peptide (0.015% or higher) results in lower dose volume and may require longer than a minute to form a clear solution. […]

A short description of data set [3]: adsorption onto glass container in liquid form. The text has this: However, with regard to amylin agonists or amylins which do have such a tendency when in liquid form, a surfactant should be used in their formulation. These formulations may then be lyophilized. Surfactants frequently cause denaturation of protein, both of hydrophobic disruption and by salt bridge separation. Relatively low concentrations of surfactant may exert a potent denaturing activity, because of the strong interactions between surfactant moieties and the reactive sites on proteins. However, judicious use of this interaction can stabilize proteins against interfacial or surface denaturation. Surfactants which could further stabilize the peptide may optionally be present in the range of about 0.001 to 0.3% (w/v) of the total formulation and include polysorbate 80 (i.e., polyoxyethylene(20) sorbitan monooleate), CHAPS® (i.e., 3-[(3-cholamidopropyl) dimethylammonio] 1-propanesulfonate), Brij® (e.g., Brij 35, which is (polyoxyethylene (23) lauryl ether), poloxamer, or another non-ionic surfactant.

In the case of `CC[C@H](C)[C@H](NC(=O)[C@@H]1CCCN1C(=O)CNC(=O)[C@H](Cc1ccccc1)NC(=O)[C@H](CC(N)=O)NC(=O)[C@H](CC(N)=O)NC(=O)[C@H](CO)NC(=O)[C@H](CO)NC(=O)[C@H](Cc1c[nH]cn1)NC(=O)[C@@H](NC(=O)[C@H](CC(C)C)NC(=O)[C@H](Cc1ccccc1)NC(=O)[C@H](CC(N)=O)NC(=O)[C@H](C)NC(=O)[C@H](CC(C)C)NC(=O)[C@H](CCCNC(=N)N)NC(=O)[C@H](CCC(N)=O)NC(=O)[C@@H](NC(=O)[C@H](C)NC(=O)[C@@H]1CSSC[C@H](NC(=O)[C@@H](N)CCCCN)C(=O)N[C@@H](CC(N)=O)C(=O)N[C@@H]([C@@H](C)O)C(=O)N[C@@H](C)C(=O)N[C@@H]([C@@H](C)O)C(=O)N1)[C@@H](C)O)C(C)C)C(=O)N[C@@H](CC(C)C)C(=O)N1CCC[C@H]1C(=O)N1CCC[C@H]1C(=O)N[C@H](C(=O)N[C@@H](CC(N)=O)C(=O)N[C@H](C(=O)NCC(=O)N[C@@H](CO)C(=O)N[C@@H](CC(N)=O)C(=O)N[C@H](C(=O)N[C@@H](Cc1ccc(O)cc1)C(N)=O)[C@@H](C)O)C(C)C)[C@@H](C)O` [pramlintide, ^25,28,29Pro-h-amylin], in data set [1], the “stability of the peptide over the pH range studied” value is given as “most stable at pH 4.0”. Further, in data set [2], the “time insulin and peptide formulation can remain in the same syringe retaining activity and stability” value was “at least 24 hours”. Besides, in data set [3], the “tendency to adsorb onto glass” value is listed as “does not have a tendency to adsorb onto the glass”.
